Key:
[1] = system: ovariectomized osteoporosis rat model; assay: serum bone turnover markers by automatic serum biochemical analyzer; type: in vivo, SD rats
Protocol: 1, the construction of ovariectomized rats models: SD rats are kept in a clean environment under a controlled room temperature at 25±2° C. and alternates 12/12 light and dark every day, and the SD rats feed freely. After one week adaptive feeding, randomly select 8 female rats, anesthetize them with 1% (v/v) pentobarbital sodium (40 mg/kg BW), and remove a little fat near ovaries. The remaining 40 rats are ovariectomized after being anesthetized with pentobarbital sodium. The recovery situation is observed in a 4-week recovery period, and their weight changes are detected. These are prepared by the applicant in advance. (any research about metabolic fingerprint changes of ovariectomized osteoporotic rats after intervention with bone peptide have not been reported according to the existing literature). 2, animal grouping and samples collection: the 8 female rats with a little fat near ovaries removed are selected as a sham-operated group, the ovariectomized 40 rats are randomly divided into 5 groups with 8 rats in each group, and are named by a negative control group, a positive control group, a low-concentration treatment group, a medium-concentration treatment group and a high-concentration treatment group. The rats are perfused by different solutions of bovine bone peptide (diluted by ultrapure water, and sterilized) with concentration of 100 mg/kg, 200 mg/kg, and 500 mg/kg according to the weights of the rats. The rats in the negative control group are perfused with equal volume of ultrapure sterile water (a perfusing volume is generally 1-2 mL/100 g BW), and the rats in the positive control group are perfused with 50 μg/kg of 17β-estradiol (ES). Observe weight changes of the rats and measure the weights every two weeks. Urine is automatically collected with a metabolic cage for 12 hours every 4 weeks (the urine is collected as much as possible under the premise of ensuring normal signs of the rats). 1 mmol/L NaN3 solution is added into collected urine as a preservative, the collected urine is placed in a centrifuge at 4° C. and centrifuged at a speed of 10000×g for 10 minutes, and the supernatant is collected, distributed and stored in a refrigerator at −80° C. for determining. The rats are fasted for 12 hours at 4th week, 8th week, and 12th week. Fasted rats are anesthetized by intraperitoneal injection of pentobarbital sodium (40 mg/kg BW) with a volume concentration of 1%, and are subjected to blood collection from the abdominal aorta (the blood is collected as much as possible under the premise of ensuring normal signs of the rats). Collected blood is placed at 4° C. for 3 h and is centrifuged (5000 rpm) for 10 minutes. Upper serum is collected (collecting 2 mL of blood, separating into 4 tubes after separating the serum), is divided into 0.5 mL EP tubes, and stored in a refrigerator at −80° C. for later use. The metabolic cage comprises a cage body with a bottom and a metabolite collecting part. The metabolite collecting part is arranged below the cage body and comprises a barrel 1 and a cover 2 mounted on an upper end of a peripheral wall of a first side of the barrel, an upper end of a peripheral wall of a second side of the barrel is provided with a drainage port, and a solid-liquid separating part is arranged in the barrel. The solid-liquid separating part comprises an arc-shaped partition plate 3 with a first end fixed with a peripheral wall of the barrel and multi-stage filter plates 4, which divide an inner space of the barrel into a first accommodating space and a second accommodating space. The multi-stage filter plates are arranged in the second accommodating space along a vertical direction, and the multi-stage filter plates are successively arranged end to end to form a folded-line diversion channel. A depth of a bottom wall of the barrel from the first side to the second side becomes larger. […]

[2] = system: ovariectomized osteoporosis rat model; assay: three-point bending test of left femurs; type: in vivo, SD rats; conditions: left femur; treatment groups and ES group vs Model group
Protocol: 1, the construction of ovariectomized rats models: SD rats are kept in a clean environment under a controlled room temperature at 25±2° C. and alternates 12/12 light and dark every day, and the SD rats feed freely. After one week adaptive feeding, randomly select 8 female rats, anesthetize them with 1% (v/v) pentobarbital sodium (40 mg/kg BW), and remove a little fat near ovaries. The remaining 40 rats are ovariectomized after being anesthetized with pentobarbital sodium. The recovery situation is observed in a 4-week recovery period, and their weight changes are detected. These are prepared by the applicant in advance. (any research about metabolic fingerprint changes of ovariectomized osteoporotic rats after intervention with bone peptide have not been reported according to the existing literature). 2, animal grouping and samples collection: the 8 female rats with a little fat near ovaries removed are selected as a sham-operated group, the ovariectomized 40 rats are randomly divided into 5 groups with 8 rats in each group, and are named by a negative control group, a positive control group, a low-concentration treatment group, a medium-concentration treatment group and a high-concentration treatment group. […]

[3] = treatment groups and ES group vs Model group
[4] = vs Model group, P<0.05, YBP 100/200/500 mg/kg, ES 50 μg/kg perfused

## C[C@]12CC[C@@H]3c4ccc(O)cc4CC[C@H]3[C@@H]1CC[C@@H]2O [ES, 17β-estradiol]
[1]; [3]
  content of DPD: on a decline trend
  content of PINP: on a decline trend
  content of S-CTX: on a decline trend
  content of TRAP: on a decline trend
[1]; [4]
  content of B-ALP (bone alkaline phosphatase): significantly increased
  content of BGP (bone gamma-carboxyglutamic acid containing proteins): significantly increased
[2]
  elastic load (Ed): on a rise trend
  fracture load (Fd): on a rise trend

From patent US20220308068A1, “BIOMARKER IN OSTEOPOROSIS INTERVENTION THERAPY BY BONE PEPTIDE, SCREENING METHOD AND USE THEREOF” (Institute of Food Science and Technology, Chinese Academy …, priority 2019, published 2022)
